Experiments:
[1] = biological target: T1, GB1 (K28H/Q32H, diHis GB1) (Streptococcus sp. 'group G', UniProt P06654, K254H/Q258H); test: NMR titration; PCS of the IDA-Co2+ complex; type: binding
T1 construct: gene spg; GB1

[2] = biological target: T1, GB1 (K28H/Q32H, diHis GB1); test: NMR (Kd measurement; PCS of the NTA-Co2+ complex); type: binding

T1 sequence (P06654 228-282 K254H/Q258H limits assumed): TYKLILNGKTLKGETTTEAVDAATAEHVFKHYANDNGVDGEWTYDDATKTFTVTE

SMILES | Kd [1] [µM] | Kd [2] [µM]
O=C(O)CNCC(=O)O [IDA-Co2+, iminodiacetic acid] | < 212 | 
O=C(O)CN(CC(=O)O)CC(=O)O [NTA-Co2+, nitrilotriacetic acid] |  | 128
